Source: US6358885B1, “Substituted phenylheterocyclic herbicides” (Mississippi State University, priority 1992, dated 2002)

Legend:
Test in all cases: Test B preemergence/postemergence greenhouse plant response rating 0 to 10
lambsquarters = type: in vivo, Chenopodium album; conditions: Rate 200 g/ha
Source text: (§1) Seeds of barley (Hordeum vulgare), barnyardgrass (Echinochloa crus-galli), bedstraw (Galium aparine), blackgrass (Alopecurus myosuroides), […] (Bromus secalinus), chickweed (Stellaria media), cocklebur (Xanthium pensylvanicum), corn (Zea mays), cotton (Gossypium hirsutum), crabgrass (Digitaria spp.), giant foxtail (Setaria faberii), lambsquarters (Chenopodium album), morningglory (Ipomoea hederacea), rape (Brassica napus), rice (Oryza sativa), sorghum (Sorghum bicolor), soybean (Glycine max), sugar beet (Beta vulgaris), velvetleaf (Abutilon theophrasti), wheat (Triticum aestivum), wild buckwheat (Polygonum convolvulus), and wild oat (Avena fatua) and purple nutsedge. (Cyperus rotundus) tubers were planted and treated preemergence with test chemicals dissolved in a non-phytotoxic solvent. At the same time, these crop and weed species were also treated with postemergence applications of test chemicals. Plants ranged in height from two to eighteen cm (one to four leaf stage) for postemergence treatments. Treated plants and controls were maintained in a greenhouse for twelve to sixteen days, after which all species were compared to controls and visually evaluated. […] A dash (-) response means no test result.

morningglory = type: in vivo, Ipomoea hederacea; conditions: for Plant response rating, Morningglory: 0 to 10 scale
Source text: as §1

rape = type: in vivo, Brassica napus; conditions: for Plant response rating, Rape: 0 to 10 scale
Source text: as §1

rice = type: in vivo, Oryza sativa; conditions: for Plant response rating, Rice: 0 to 10 scale
Source text: as §1

sorghum = type: in vivo, Sorghum bicolor; conditions: for Plant response rating, Sorghum: 0 to 10 scale
Source text: as §1

soybean = type: in vivo, Glycine max; conditions: for Plant response rating, Soybean: 0 to 10 scale
Source text: as §1

sugar beet = type: in vivo, Beta vulgaris; conditions: for Plant response rating, Sugar beet: 0 to 10 scale
Source text: as §1

velvetleaf = type: in vivo, Abutilon theophrasti; conditions: for Plant response rating, Velvetleaf: 0 to 10 scale
Source text: as §1

wheat = type: in vivo, Triticum aestivum; conditions: for Plant response rating, Wheat: 0 to 10 scale
Source text: as §1

wild buckwheat = type: in vivo, Polygonum convolvulus; conditions: for Plant response rating, Wild buckwheat: 0 to 10 scale
Source text: as §1

wild oat = type: in vivo, Avena fatua; conditions: for Plant response rating, Wild oat: 0 to 10 scale
Source text: as §1

purple nutsedge = type: in vivo, Cyperus rotundus; conditions: for Plant response rating, Nutsedge: 0 to 10 scale
Source text: as §1

CON=C(C)c1cc(-c2nn3c(c2Cl)CCCC3)c(F)cc1Cl [Compound 82]
Plant response rating (0 to 10 scale), Lambsquarter (lambsquarters; PREEMERGENCE): 10 | Plant response rating, Lambsquarter (lambsquarters; POSTEMERGENCE, 0 to 10 scale): 9 | Plant response rating, Morningglory (morningglory; POSTEMERGENCE, Rate 50 g/ha): 10 | Plant response rating, Morningglory (morningglory; PREEMERGENCE, Rate 50 g/ha): 0 | Plant response rating (0 to 10 scale), Morningglory (morningglory; PREEMERGENCE, Rate 200 g/ha): 2 | Plant response rating, Morningglory (morningglory; Rate 200 g/ha, POSTEMERGENCE): 10 | Plant response rating, Rape (rape; POSTEMERGENCE, Rate 50 g/ha): 5 | Plant response rating, Rape (rape; PREEMERGENCE, Rate 50 g/ha): 0 | Plant response rating (0 to 10 scale), Rape (rape; PREEMERGENCE, Rate 200 g/ha): 6 | Plant response rating, Rape (rape; Rate 200 g/ha, POSTEMERGENCE): 7 | Plant response rating, Rice (rice; POSTEMERGENCE, Rate 50 g/ha): 4 | Plant response rating, Rice (rice; PREEMERGENCE, Rate 50 g/ha): 0 | Plant response rating (0 to 10 scale), Rice (rice; PREEMERGENCE, Rate 200 g/ha): 2 | Plant response rating, Rice (rice; Rate 200 g/ha, POSTEMERGENCE): 6 | Plant response rating, Sorghum (sorghum; POSTEMERGENCE, Rate 50 g/ha): 2 | Plant response rating, Sorghum (sorghum; PREEMERGENCE, Rate 50 g/ha): 0 | Plant response rating (0 to 10 scale), Sorghum (sorghum; PREEMERGENCE, Rate 200 g/ha): 2 | Plant response rating, Sorghum (sorghum; Rate 200 g/ha, POSTEMERGENCE): 4 | Plant response rating, Soybean (soybean; POSTEMERGENCE, Rate 50 g/ha): 4 | Plant response rating, Soybean (soybean; PREEMERGENCE, Rate 50 g/ha): 0 | Plant response rating (0 to 10 scale), Soybean (soybean; PREEMERGENCE, Rate 200 g/ha): 6 | Plant response rating, Soybean (soybean; Rate 200 g/ha, POSTEMERGENCE): 6 | Plant response rating, Sugar beet (sugar beet; POSTEMERGENCE, Rate 50 g/ha): 10 | Plant response rating, Sugar beet (sugar beet; PREEMERGENCE, Rate 50 g/ha): 8 | Plant response rating (0 to 10 scale), Sugar beet (sugar beet; PREEMERGENCE, Rate 200 g/ha): 10 | Plant response rating, Sugar beet (sugar beet; Rate 200 g/ha, POSTEMERGENCE): 10 | Plant response rating, Velvetleaf (velvetleaf; POSTEMERGENCE, Rate 50 g/ha): 10 | Plant response rating, Velvetleaf (velvetleaf; PREEMERGENCE, Rate 50 g/ha): 0 | Plant response rating (0 to 10 scale), Velvetleaf (velvetleaf; PREEMERGENCE, Rate 200 g/ha): 10 | Plant response rating, Velvetleaf (velvetleaf; Rate 200 g/ha, POSTEMERGENCE): 10 | Plant response rating, Wheat (wheat; POSTEMERGENCE, Rate 50 g/ha): 3 | Plant response rating, Wheat (wheat; PREEMERGENCE, Rate 50 g/ha): 0 | Plant response rating (0 to 10 scale), Wheat (wheat; PREEMERGENCE, Rate 200 g/ha): 2 | Plant response rating, Wheat (wheat; Rate 200 g/ha, POSTEMERGENCE): 4 | Plant response rating, Wild buckwheat (wild buckwheat; POSTEMERGENCE, Rate 50 g/ha): 10 | Plant response rating, Wild buckwheat (wild buckwheat; PREEMERGENCE, Rate 50 g/ha): 7 | Plant response rating (0 to 10 scale), Wild buckwheat (wild buckwheat; PREEMERGENCE, Rate 200 g/ha): 9 | Plant response rating, Wild buckwheat (wild buckwheat; Rate 200 g/ha, POSTEMERGENCE): 10 | Plant response rating, Wild oat (wild oat; POSTEMERGENCE, Rate 50 g/ha): 2 | Plant response rating, Wild oat (wild oat; PREEMERGENCE, Rate 50 g/ha): 2 | Plant response rating (0 to 10 scale), Wild oat (wild oat; PREEMERGENCE, Rate 200 g/ha): 7 | Plant response rating, Wild oat (wild oat; Rate 200 g/ha, POSTEMERGENCE): 4 | Plant response rating, Nutsedge (purple nutsedge; POSTEMERGENCE, Rate 50 g/ha): 2 | Plant response rating, Nutsedge (purple nutsedge; PREEMERGENCE, Rate 50 g/ha): 0 | Plant response rating (0 to 10 scale), Nutsedge (purple nutsedge; PREEMERGENCE, Rate 200 g/ha): 0 | Plant response rating, Nutsedge (purple nutsedge; Rate 200 g/ha, POSTEMERGENCE): 2
